Molecular target: T1, Melanin-concentrating hormone receptor 1 (Homo sapiens, UniProt Q99705)
Assay: Displacement of [125I]MCH from human MCHR1 expressed in CHO cell membranes at 5 ug/ml

T1 sequence (Q99705 whole entry): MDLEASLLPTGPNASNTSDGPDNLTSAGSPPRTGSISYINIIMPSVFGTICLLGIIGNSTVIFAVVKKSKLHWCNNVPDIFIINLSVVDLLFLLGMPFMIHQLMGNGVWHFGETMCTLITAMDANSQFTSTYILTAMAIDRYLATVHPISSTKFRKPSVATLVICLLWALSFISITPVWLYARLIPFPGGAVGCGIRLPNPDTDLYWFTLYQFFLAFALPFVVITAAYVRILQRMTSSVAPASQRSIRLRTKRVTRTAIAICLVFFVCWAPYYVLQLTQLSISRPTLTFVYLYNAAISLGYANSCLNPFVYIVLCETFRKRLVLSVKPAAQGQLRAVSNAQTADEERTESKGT

Point of comparison: `O=C(Nc1ccccc1)c1c(-c2ccccc2)n(Cc2ccccc2)c2nc3ccccc3n12`, inhibition 15%. Against it:
- COc1cc(C(=O)Oc2ccc(N(Cc3cccs3)C3=NS(=O)(=O)c4ccccc43)cc2)cc(OC)c1OC — lower, 10%
- CCOc1ccccc1Nc1nc(N)nc(CN(C)C2CCCCC2)n1 — higher, 16%
- COc1ccc(Nc2nc(N)nc(CN(C)C3CCCCC3)n2)cc1 — lower, 0%
- COc1ccc(-c2cn3c4ccccc4nc3n2CCCN2CCOCC2)cc1 — lower, 0%
- CCOc1ccc(NC2=NS(=O)(=O)c3cc([N+](=O)[O-])ccc32)cc1 — lower, 4%
- CCCn1c(-c2ccc(-c3ccccc3)cc2)c(C(C)=O)n2c3ccccc3nc12 — higher, 18%
- Cc1ccc(S(=O)(=O)CN(CS(=O)(=O)c2ccc(C)cc2)c2ccc(Br)cc2F)cc1 — lower, 10%
- COc1ccccc1Nc1nc(N)nc(CN(C)C2CCCCC2)n1 — lower, 0%
- CCC(=O)Oc1ccc(NC2=NS(=O)(=O)c3ccccc32)cc1 — higher, 31%
- CCOc1ccc(Nc2nc(N)nc(CN(C)C3CCCCC3)n2)cc1 — lower, 3%
- COc1cc(CN(CCCn2ccnc2)C(=O)c2cc3sccc3n2C)cc(OC)c1 — lower, 0%
- O=C(c1cc2sccc2n1Cc1ccc(F)cc1)N(CCCN1CCOCC1)Cc1cccnc1 — higher, 44%
- COc1ccccc1CN(C(=O)c1cc2sccc2n1C)C1CC(C)(C)NC(C)(C)C1 — lower, 3%

Molecular target: T1, Melanin-concentrating hormone receptor 1
Assay: Displacement of [125I]MCH from human MCHR1 expressed in CHO cell membranes

Point of comparison: `CCN(CC)Cc1cc(N=C2NS(=O)(=O)c3ccccc32)ccc1OC(=O)c1ccc(OC)cc1`, Ki 11.3 µM. Against it:
- Cc1ccc(S(=O)(=O)CN(Cc2ccccc2)CS(=O)(=O)c2ccc(C)cc2)cc1 — 1.5-fold lower, 7.5 µM
- Cc1ccccc1SCN(CCc1ccccc1)CSc1ccccc1C — 1.5-fold lower, 7.5 µM
- CCCCCCN(CS(=O)(=O)c1ccc(C)cc1)CS(=O)(=O)c1ccc(C)cc1 — 6.6-fold lower, 1.7 µM
- COc1ccc(/C=C2/SC(=S)N(CCCC(=O)OCCN(C)C)C2=O)cc1 — within 1.5-fold, 8.1 µM
- Cc1ccccc1Nc1nc(N)nc(CN(C)Cc2cccc(Cl)c2)n1 — within 1.5-fold, 7.8 µM
- CC(C)N(CCCNC(=O)c1cc2sccc2n1C)Cc1ccccc1 — 1.8-fold higher, 20.9 µM
- CCN(CC)CCCn1c(-c2ccc(Br)cc2)cn2c3ccccc3nc12 — within 1.5-fold, 11.9 µM

— ChEMBL document CHEMBL1140742, “Discovery of novel chemotypes to a G-protein-coupled receptor through ligand-steered homology modeling and structure-based virtual screening” (J Med Chem, 2008)
